Consider three compounds from US20150218594A1, “CELL-FREE AND MINIMIZED METABOLIC REACTION CASCADES FOR THE PRODUCTION OF CHEMICALS” (CLARIANT PRODUKTE (DEUTSCHLAND) GMBH, priority 2012, published 2015).

The conditions of series [1]: 20° C.; cited from earlier work.
In another series the test system is E. coli. The note with it: recombinant fermentative production in E. coli; cited from earlier work.
Series [2] has as its system artificial enzyme cascade. In words: Solvent tolerance of the artificial enzyme cascade (glucose to ethanol with increasing isobutanol). Type of series: biochemical. How it is done: A key characteristic of cell-free systems is their pronounced tolerance against higher alcohols.
All reactions were set up in 20 ml GC vials. Reaction mixtures contained 100 mM HEPES (pH 7 at 50° C.), 0.1 mM thiamine-pyrophosphate, 2.5 mM MgCl2, 25 mM D-glucose and 5 mM NAD. […] Reaction mixtures were placed in a water bath at 50° C. and gently stirred at 100 rpm.

The test system of another series is microbial cells. The note with it: cited from earlier work.

Take `CCC(C)O` (stereo not shown) [2-Butanol]: the “restricted miscibility in water” value in series [1] was “about 12%”.
As for `CC(C)CO` [isobutanol], the “restricted miscibility in water” value in series [1] is given as 9-10%. The “isobutanol titers that induce toxic effects in the microbial production host” value with E. coli is 1-2 % (v/v). The “ethanol produced in the presence of 6% (v/v) isobutanol” value in series [2] (6% (v/v) isobutanol, in 8 h) is 1.4 mM. For the same compound, the “isobutanol concentration up to which cell-free ethanol productivity and reaction kinetics were not significantly affected” value in series [2] (glucose to ethanol as in Example 1, 50° C.) is “up to 4 % (v/v)”. For the same compound, the “isobutanol concentration that results in loss of productivity of microbial cells” value in the series on microbial cells is “ca. 1 % v/v”.
Turning to `CCCCO` [n-Butanol], in series [1], the “restricted miscibility in water” value is listed as 7-8%.
